Experimental data published in PubChem BioAssay (NCI).
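Method: 48-hour compound exposure of cells in 96-well plates, five concentrations, linear interpolation of endpoints. TGI marks complete inhibition of growth.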

Assays:
Assay in all cases: NCI-60 cell line screen, 48 h
786-0 renal = system: 786-0 renal
A549 NSCLC = system: A549 NSCLC
ACHN renal = system: ACHN renal
BT-549 breast = system: BT-549 breast
CAKI-1 renal = system: CAKI-1 renal
CCRF-CEM leukemia = system: CCRF-CEM leukemia
COLO 205 colon = system: COLO 205 colon
DU-145 prostate = system: DU-145 prostate
EKVX NSCLC = system: EKVX NSCLC
HCC-2998 colon = system: HCC-2998 colon
HCT-116 colon = system: HCT-116 colon
HCT-15 colon = system: HCT-15 colon
HL-60(TB) leukemia = system: HL-60(TB) leukemia
HOP-62 NSCLC = system: HOP-62 NSCLC
HOP-92 NSCLC = system: HOP-92 NSCLC
HS 578T breast = system: HS 578T breast
HT29 colon = system: HT29 colon
IGROV1 ovarian = system: IGROV1 ovarian
K-562 leukemia = system: K-562 leukemia
KM12 colon = system: KM12 colon
LOX IMVI melanoma = system: LOX IMVI melanoma
M14 melanoma = system: M14 melanoma
MALME-3M melanoma = system: MALME-3M melanoma
MCF7 breast = system: MCF7 breast
MDA-MB-231 breast = system: MDA-MB-231 breast
MDA-MB-435 = system: MDA-MB-435
MDA-N = system: MDA-N
MOLT-4 leukemia = system: MOLT-4 leukemia
NCI-H226 lung = system: NCI-H226 lung
NCI-H23 lung = system: NCI-H23 lung
NCI-H460 lung = system: NCI-H460 lung
NCI-H522 lung = system: NCI-H522 lung
NCI/ADR-RES ovarian = system: NCI/ADR-RES ovarian
OVCAR-3 ovarian = system: OVCAR-3 ovarian
OVCAR-4 ovarian = system: OVCAR-4 ovarian
OVCAR-5 ovarian = system: OVCAR-5 ovarian
OVCAR-8 ovarian = system: OVCAR-8 ovarian
PC-3 prostate = system: PC-3 prostate
RPMI-8226 leukemia = system: RPMI-8226 leukemia
RXF 393 renal = system: RXF 393 renal
SF-268 CNS = system: SF-268 CNS
SF-295 CNS = system: SF-295 CNS
SK-MEL-28 melanoma = system: SK-MEL-28 melanoma
SK-MEL-5 melanoma = system: SK-MEL-5 melanoma
SK-OV-3 ovarian = system: SK-OV-3 ovarian
SN12C renal = system: SN12C renal
SNB-19 CNS = system: SNB-19 CNS
SNB-75 CNS = system: SNB-75 CNS
SR leukemia = system: SR leukemia
SW-620 colon = system: SW-620 colon
T-47D breast = system: T-47D breast
TK-10 renal = system: TK-10 renal
U251 CNS = system: U251 CNS
UACC-62 melanoma = system: UACC-62 melanoma
UO-31 renal = system: UO-31 renal

Measured: TGI

CC(=O)NC(Cc1cnc[nH]1)C(=O)N1CCCC1C(N)=O (stereo not given)
> 100 µM: all assays above
